Measurements reported in US20240293420A1, “PHARMACEUTICAL COMPOSITION, PREPARATION, AND PREPARATION METHOD THEREFOR AND USE THEREOF” (WUHAN LL SCIENCE AND TECHNOLOGY DEVELOPMENT CO., LTD., priority 2021, published 2024).
Values after ≈ are worked out from the molar mass of the structure shown. “Also recorded” adds a separate entry of the source.

What was measured:
[1] = Dynamic vapor sorption (DVS) test; format: physicochemical
[2] = Physical and chemical stability of crystal forms at 60° C. (closed) and 40° C./75% RH (open); format: physicochemical
Description: The physical and chemical stability of crystal forms I, III, and V at 60° C. (closed) and 40° C./75% RH (open) for 7 days were investigated respectively.
(closed) and 40° C./75% RH (open) for 3 months were investigated.

[3] = Solubility tests in biological media of SGF, FaSSIF and FeSSIF; format: physicochemical
Description: The instrument used for liquid chromatography analysis was Agilent HPLC 1260 series, and the analytical method is shown in the table below.
The results of solubility tests of crystal forms I, III, and V in biological media of SGF, FaSSIF, and FeSSF are as shown in Table E and FIG. 43. There was little difference in the solubility of the above three crystal forms in different biological media, and the solubility in SGF was higher than 5 mg/mL.

[4] = Variable humidity XRPD (VH-XRPD) of crystal form III; format: physicochemical
Excerpt: The instrument parameters are as follows:
The humidity change program settings are as follows: […]

[5] = Pharmacokinetic experiments in Beagles; format: in vivo; settings: Beagle, male, PO, 10 mg/kg, plasma
Description: The present disclosure preferred crystal forms I, III, and V of the compound in the above examples for pharmacokinetic experiments in Beagles, and the relevant experiments are as follows:
Animal: 9 Beagles, male, divided into three groups with 3 in each group, weight ranging from 10 to 13 kg (source & certificate number: Beijing Marshall Biotechnology Co., Ltd., No. 1103182011000161)
Administration mode and dosage: PO: 10 mg/kg
Preparation: 0.5% CMC-Na was used as the solvent, and 400 mg of each of the three different crystal forms of compound A were weighed and added to the corresponding 79 mL of solvent, respectively. The mixture was subjected to ultrasonication for 20 minutes, added with a stirrer, and mixed thoroughly for 3 hours (the storage period from compound preparation to animal administration at room temperature was less than 6 hours). After the drug solution became a homogeneous and fine suspension, which was observed by the naked eye, the solvent was gradually added until the specified volume reached the target concentration. The preparation was stirred for 10 minutes at room temperature before administration, and stirred continuously during administration.
Time points for sampling: the time points for blood sampling in the PO group were 0.167, 0.5, 1, 2, 4, 6, 8, and 24 hours.
Animals in the PO group were fasted overnight except for free access to water before administration, and resumed food supply 4 hours after administration.
After Beagles in the […] were administered, blood was collected from Beagles by jugular vein puncture according to the time points for sampling. About 1.0 mL of blood was collected at each time point and transferred to an anticoagulant EP tube (containing 10 μL of EDTA-K2, 375 mg/mL). The tube was gently inverted three times, stored in an ice box (no more than 30 minutes), and centrifuged at 3200 g for 10 minutes at 4° C. The plasma was transferred to an ultra-low temperature refrigerator and stored until detection.
Sample pretreatment process: 40 μL of sample was taken, and 160 μL of acetonitrile solution containing 0.1% FA and 200 ng/mL of mixed standard solution was added to precipitate the protein. The mixture was vortexed and mixed well, and the sample was centrifuged in a 4° C. centrifuge at 13000 pm for 10 minutes. 100 μL of the supernatant was transferred to another 96 deep well plate, then 100 μL of methanol:water (1:3, v:v) solution containing 0.1% FA was added thereto, and the mixture was shaken and mixed for 10 minutes.
• Ion source: ion electrospray (ESI) • Ionization mode: positive ion mode (Positive) • Detection mode (mode): multiple reaction monitoring (MRM) • Ion spray voltage: 5500 V • Ion spray temperature (turbo ion spray temp): 550° C. • Curtain gas type: nitrogen setting: 35 • Collision cell gas type (CAD gas type): nitrogen setting: medium • Nebulizing gas type (gas 1): nitrogen setting: 55.00 • Auxiliary gas type (gas 2): nitrogen setting: 55.00
• Chromatographic column: poroshell 120 EC-C18 (4.6×50 mm, 2.7 μm) • Mobile phase A: 0.1% formic acid aqueous solution • Mobile phase B: a solution of 0.1% formic acid in methanol • Auto sampler wash solution (rinse port wash solution): 50% methanol • Column temperature: 40° C. • Flow rate: 0.55 mL/min • Auto sampler temperature (sample tray temp): 10° C. • Injection volume: 3 μL • Lift of presser foot (needle stroke): 49 mm • Auto sampler rinse setting (rinse pump setting): rinse port only • Auto sampler rinse mode (rinse mode): before aspiration • Auto sampler rinse volume for needle (rinse volume): 500 μL • Dip time when rinsing the injection needle (rinse dip time): 2 seconds
The data would be analyzed using WinNonlin (version 5.2.1 Pharsight, Mountain View, CA) through a non-compartmental model to obtain PK parameters (selecting Cmax, Tmax, AUClast, T1/2, and other parameters according to different routes of administration).

[6] = Crystal form (XRPD) in preparation process of coated tablets; format: physicochemical; settings: samples at stages of wet granulation and tabletting; listed as API
Excerpt: In order to investigate the impact of the preparation process of the preparation on the crystal form, samples were taken at different stages during the preparation process of the coated tablets according to Example 17.3 and analyzed. The analysis results are shown in Table I. The summarized results of the XRPD patterns of the products at each time point for sampling are shown in FIG. 52.
The investigation results are shown in Table J. The XRPD results of the crystal form of the coated tablet, API, and the blank excipient are shown in FIG. 53.

[7] = Crystal form transformation under humidity / drying (XRPD); format: physicochemical; settings: humidity or drying as stated in the value
Excerpt: Crystal form I can be obtained by the preparation method in Example 3. […] (FIG. 29). Combined with the DVS test results (FIG. 30), it can be seen that the mutual transformation between crystal forms I and IV is reversible.
Crystal form IV is a hygroscopic product of crystal form I under high humidity environment, and can be obtained by slurrying crystal form I or crystal form V in a mixed solvent of water/acetone with a water content of 50% to 95%.
Crystal form VI was obtained by slurrying crystal form I or crystal form V at 60° C. in a mixed solvent of water/acetone with a water content of 10% (volume ratio) at 60° C.
Crystal form VIII is a hydrate, but the hydrate is unstable.

COC(=O)N1CCO[C@@H](Cc2c(-c3c(F)cc(S(N)(=O)=O)cc3F)nc3cc(Cl)ccn23)C1 [Crystal form III, methyl (S)-2-((7-chloro-2-(2,6-difluoro-4-sulfamoylphenyl)imidazo[1,2-a]pyridin-3-yl)methyl)morpholine-4-carboxylate]
DVS hygroscopicity [1]: slightly hygroscopic
XRPD before and after the DVS test [1]: no significant change in XRPD
DVS (wt %, 80% RH) ([1]; 25° C., 80% RH): 2.7 wt %
DVS (wt %, 90% RH) ([1]; 25° C., 90% RH): 2.8 wt %
adsorbed water content ([1]; range of 10 to 80% RH): about 1.2%
Purity - 7 days (peak area %) ([2]; 40° C./75% RH (open)): 99.35 peak area %
Purity - 1 month (peak area %) ([2]; 40° C./75% RH): 99.29 peak area %
Purity - 3 months (peak area %) ([2]; 40° C./75% RH): 99.23 peak area %
XRPD - 3 months ([2]; 40° C./75% RH): Crystal form III
Purity - 7 days (peak area %) ([2]; 60° C. (closed)): 99.35 peak area %
Purity - 1 month (peak area %) ([2]; 60° C.): 99.28 peak area %
Purity - 3 months (peak area %) ([2]; 60° C.): 99.25 peak area %
XRPD - 3 months ([2]; 60° C.): Crystal form III
Initial purity (peak area %) [2]: 99.34 peak area %
Initial purity (peak area %) ([2]; listed as crystal form III): 99.33 peak area %
XRPD of remaining solid ([3]; FaSSIF, 0.5 h): Unchanged
pH ([3]; FaSSIF, 0.5 h): 6.4
XRPD of remaining solid ([3]; FaSSIF, 2 h): Unchanged
pH ([3]; FaSSIF, 2 h): 6.4
XRPD of remaining solid ([3]; FaSSIF, 24 h): Unchanged
pH ([3]; FaSSIF, 24 h): 6.4
XRPD of remaining solid ([3]; FeSSIF, 0.5 h): Unchanged
pH ([3]; FeSSIF, 0.5 h): 4.9
Solubility ([3]; FeSSIF, 2 h): 88 µg/mL (≈ 176 µM)
XRPD of remaining solid ([3]; FeSSIF, 2 h): Unchanged
pH ([3]; FeSSIF, 2 h): 4.8
Solubility ([3]; FeSSIF, 24 h): 120 µg/mL (≈ 240 µM)
XRPD of remaining solid ([3]; FeSSIF, 24 h): Unchanged
pH ([3]; FeSSIF, 24 h): 4.9
pH ([3]; SGF, 0.5 h): 1.0
solubility at 0.5 h ([3]; simulated gastric fluid, thermodynamic from solid, SGF, 0.5 h, visual observation): > 5000 µg/mL
crystal form at 0% RH ([4]; cycle of 40% RH-0% RH-40% RH at 25° C.): completely dehydrated at 0% RH and transformed into a new crystal form, anhydrous crystal form X
water content at which crystal form III is stable ([4]; from DVS at 40% RH and TGA): above 1.6%
XRPD results ([4]; procedure 6: 0% RH, 720 minutes): Anhydrous crystal form X
XRPD results ([4]; procedure 7: 0% RH, 900 minutes): Anhydrous crystal form X
XRPD results ([4]; procedure 10: 40% RH, 120 minutes): Crystal form III
XRPD results ([4]; procedure 11 (end): 40% RH, 240 minutes): Crystal form III
AUClast [5]: 14454 ± 3182 ng·h/mL
Cmax [5]: 1159 ± 160 ng/mL
T1/2 [5]: 12.9 ± 1.06 h
Tmax [5]: 2.00 ± 0.00 h
Crystal form in preparation process [6]: remained stable; also recorded: Crystal form III
crystal form transformation [7]: quickly absorbed moisture under ambient humidity and became crystal form III again
